Measured values taken from paper PMC7355430, “Imunofan—RDKVYR Peptide—Stimulates Skin Cell Proliferation and Promotes Tissue Repair” (Molecules, 2020).
Peptide text beside a SMILES is read from it.

How the values were obtained:
ASCs from donor 6 = test: RNA sequencing with ingenuity pathway analysis (IPA); assay type: cell-based, human; conditions: ASCs donor 6, 0.1 µg/mL IM
Protocol: Cell stimulation was performed as previously described. Primary fibroblasts after the third passage and ASCs after the second passage were cultured in appropriate DMEM medium supplemented with 10% FBS for 24 h. Then, the medium was changed for DMEM with 5% FBS and 24-h incubation was performed. After another medium change for serum-free, cells were stimulated with IM peptide (0.1 µg/mL) for 48 h. Cell cultures deprived of FBS for 48 h were used as a control. After stimulation, the cells were trypsinized, collected, and centrifuged, and the pellet was kept frozen (−80 °C) for transcriptome analysis and transcript level analysis.
For three plastic surgery donors (donor 6, donor 11, and donor 12) ASCs (3–4.5 × 10^5 cells) after passage P2, namely cultures stimulated for 48 h with 0.1 µg/mL IM, or control cultured with FBS-deprived medium, were trypsinized, washed, and snap frozen for transcriptome analysis (see Supplementary Table S5 for clinical information). The pellets were stored at −80 °C prior to RNA isolation. RNA was isolated using a miRNeasy Mini Kit (Qiagen, Hilden, Germany) with two modifications of the original protocol: (i) chloroform was substituted with 1-bromo-3-chloropropane to prevent foaming and emulsification, and (ii) the elution was done with 40 µl of water followed by another elution with the entire volume of the original eluate. The quality and concentration of RNA was assessed using a Bioanalyzer 2100 Instrument and RNA 6000 Nano Kit (Agilent, Waldbronn, Germany). The average RNA yield was 2 µg. Samples with RIN (RNA Integrity Number) >8.0 were used for further transcriptome analysis.
A ribosome reduction kit (Arraystar Inc, Rockville, MD, USA) and SureSelect Strand Specific mRNA library kit (Agilent, Santa Clara, CA, USA) were used for next generation sequencing (NGS) library preparation according to standard procedures. The cDNA libraries were quantitated using qPCR in a Roche LightCycler 480 with the Kapa Library Quantification Kit for Illumina platforms (Kapa Biosystems, Woburn, MA, USA). Onboard cluster generation and 50 nt paired end RNA sequencing were performed on an Illumina HiSeq2500 device using Rapid Run v2 sequencing chemistry and flow cells as recommended by the manufacturer (Illumina Inc., San Diego, CA, USA). Paired end 50 bp sequencing runs were completed and the data was converted to the FASTQ Sanger format. Trim Galore was used to remove residual adapter sequences from the reads (https://www.bioinformatics.babraham.ac.uk). Sequencing reads were aligned to the human reference genome assembly (hg19) using TopHat. Further analysis was performed according to workflow for Cufflinks version 2.2.0 and higher. Transcript assembly and estimation of the relative abundances were carried out with Cufflinks using the following settings: Quartile normalization method for the libraries, blind dispersion method for replicates, and biased correction using canonical hg19 as reference. Cuffmerge and Cuffquant were then performed, followed by final comparison analysis in Cuffdiff. […] Differentially expressed genes (DGE) were grouped in functional pathways using ingenuity pathway analysis (IPA Spring Release 2017, QIAGEN, Hilde, Germany) on a gene level, using RefSeq annotation.

46BR.1N fibroblasts = test: XTT proliferation assay; assay type: cell-based, human; conditions: 48 h, 0.1–100 µg/mL, serum-free DMEM, n=16
Protocol: (§1) XTT assay, which is widely used in the measurement of the effect of bioactive compounds (e.g., cytokines, growth factors, and peptides) on cell proliferation was used for the evaluation of IM effect on skin cells and ASCs proliferation. Cells were seeded at a density of 5000 cells per well into 96-well plates (BD, cat.no. 353872), in a medium supplemented with 10% of FBS, which after 24 h was exchanged for a serum-free DMEM medium containing appropriate concentrations of the IM peptide. IM solutions used in the experiments were prepared with double distilled water under sterile conditions. The cells were incubated with the peptide for 48 h or 72 h, then XTT reagent was added and the plates were incubated at 37 °C for 4 h in the presence of 5% CO2, following manufacturer’s instructions (Sigma-Aldrich, St. Louis, MO, USA). Plates were then read using a standard plate reader at OD 490 nm. Cell proliferation was normalized with respect to an untreated control (100%).

ASCs = test: XTT proliferation assay; assay type: cell-based, human; conditions: 48 h, 1.0 and 10 µg/mL, serum-free DMEM, n=16
Protocol: as §1

HaCaT keratinocytes = test: XTT proliferation assay; assay type: cell-based, human
Protocol: as §1

[1] = test system: MCF-7 breast cancer cells; test: MTT proliferation test; assay type: cell-based; conditions: 24, 48 or 72 h, RPMI-1640 with 10 % FBS; Mann Whitney U-test (Figure S12)
Protocol: (§2) Cancer cell prolifertion assay. Cell proliferation was determined by the MTT method. MTT test measures enzymatic activity, which is a marker of viable cells. Drop in amount of formazan informs that there is less metabolically active cells as compared with control (taken as 100%); however, it might be caused by cell cycle arrest (stopped or slowed proliferation) and/or cell death (which also may happen after prolonged incubation with tested compounds). T47D or MCF-7 breast cancer cells were cultured in RPMI-1640 supplemented with 10 % fetal bovine serum and 1 % penicillin/streptomycin solution. Cells were seeded, at a density of 2 x 10^3 per well, in a 96-well plate and allowed to attach overnight. The medium was replaced with fresh medium supplemented with desired concentrations of each investigated compound for 24, 48 or 72 h. Before the end of treatment, 25 µL of MTT solution (4 mg per ml-^1) were added to each well. After 3 h of incubation, medium was removed, and formazan crystals were dissolved in 100 µL of DMSO. Absorbance was measured at 570 nm (with reference wavelength 660 nm) in a Victor microplate reader. Data were obtained from at least three independent experiments performed in triplicate.

T47D breast cancer cells = test: MTT proliferation test; assay type: cell-based; conditions: 48 or 72 h, RPMI-1640 with 10 % FBS; Mann Whitney U-test (Figure S11)
Protocol: as §2

[2] = 48 h vs FBS-deprived medium, IPA disease and function mode

For `CC(C)[C@H](NC(=O)[C@H](CCCCN)NC(=O)[C@H](CC(=O)O)NC(=O)[C@@H](N)CCCNC(=N)N)C(=O)N[C@@H](Cc1ccc(O)cc1)C(=O)N[C@@H](CCCNC(=N)N)C(=O)O` [IM, H-Arg-Asp-Lys-Val-Tyr-Arg-OH] (H-RDKVYR-OH), the “consistency score of the IPA regulatory network” value (ASCs from donor 6; 48 h, highest consistency score (Figure S10A)) was 29.69, the “Predicted Direction of Change: Activation of cells” value (ASCs from donor 6; [2]) was “Activation” and the “Predicted Direction of Change: Binding of neutrophils” value (ASCs from donor 6; [2]) was “Activation”. For the same compound, the “Predicted Direction of Change: Cell migration of granulocytes” value (ASCs from donor 6; [2]) was “Activation”, the “Predicted Direction of Change: Cell migration of neutrophils” value (ASCs from donor 6; [2]) was “Activation” and the “Predicted Direction of Change: Cell movements” value (ASCs from donor 6; [2]) was “Activation”. For the same compound, the “Predicted Direction of Change: Chemotaxis” value (ASCs from donor 6; [2]) was “Activation”, the “Predicted Direction of Change: Immune response” value (ASCs from donor 6; [2]) was “Activation” and the “Predicted Direction of Change: Migration of cells” value (ASCs from donor 6; [2]) was “Activation”. The “Predicted Direction of Change: Migration of endothelium cells” value (ASCs from donor 6; [2]) was “Activation”, the “Predicted Direction of Change: Permeability of endothelium cells” value (ASCs from donor 6; [2]) was “Activation” and the “Predicted Direction of Change: RNA transactivation” value (ASCs from donor 6; [2]) was “Activation”. For the same compound, the “Predicted Direction of Change: Secretion of lipids” value (ASCs from donor 6; [2]) was “Activation”, the “Predicted Direction of Change: Synthesis of fatty acids” value (ASCs from donor 6; [2]) was “Activation” and the “Predicted Direction of Change: Synthesis of nitric oxide” value (ASCs from donor 6; [2]) was “Activation”. The “increase in proliferation compared to the control” value (46BR.1N fibroblasts) was 20–40%, the increase in proliferation (ASCs) was 10% and the “increase in cell proliferation” value (HaCaT keratinocytes; 48 h, 0.1 and 1 µg/mL, serum-free DMEM, XTT, n=16) was 20–50%. The “increase in proliferation of keratinocytes (abstract)” value (HaCaT keratinocytes; as summarised in the abstract, p < 0.05) was 20–50%, the “difference in proliferation from control (MTT)” value [1] was “not statistically significant” and the “difference in proliferation from control (MTT)” value (T47D breast cancer cells) was “not statistically significant”.
